Results from US20240398728A1, “STERILE TOPICAL SALINE PUTRESCINE FORMULATION AND USES THEREOF” (VIVIER CANADA INC., priority 2018, published 2024).

Tests used:
[1] = Solubility of ingredients in water noted during manufacturing; format: physicochemical; conditions: noted by Applicant during manufacturing
Excerpt: (§1) As such, a first heating step (to about 40 degrees Celsius) while stirring, together with the sequential addition of Allantoin followed by HPMC allowed to improve the manufacturing procedure. Propanediol was also shown to help solubilization of active ingredients in the mixture. […] Once applied on the skin, the alcohol rapidly evaporates and promotes adherence of the film forming agent (e.g., PVP) on the skin. The presence of alcohol also promotes evaporation of water. Finally, because the presence of sodium salt (saline) could interfere with active ingredients in the formulation, it is preferentially added at the end of the process.
as §1, with “the PVP (which forms a film)” for “the film forming agent (e.g., PVP)”, “also promoted” for “also promotes”, “it was” for “it is”, “process. […]” for “process.”

[2] = target: fibroblast tissue transglutaminase (Homo sapiens, UniProt P21980); conditions: in vitro and in vivo, topical, compared to controls; cited from earlier work
epidermis of eroded skin = conditions: topical; animals and human epidermis; cited from earlier work

Sequence of fibroblast tissue transglutaminase (P21980 whole entry): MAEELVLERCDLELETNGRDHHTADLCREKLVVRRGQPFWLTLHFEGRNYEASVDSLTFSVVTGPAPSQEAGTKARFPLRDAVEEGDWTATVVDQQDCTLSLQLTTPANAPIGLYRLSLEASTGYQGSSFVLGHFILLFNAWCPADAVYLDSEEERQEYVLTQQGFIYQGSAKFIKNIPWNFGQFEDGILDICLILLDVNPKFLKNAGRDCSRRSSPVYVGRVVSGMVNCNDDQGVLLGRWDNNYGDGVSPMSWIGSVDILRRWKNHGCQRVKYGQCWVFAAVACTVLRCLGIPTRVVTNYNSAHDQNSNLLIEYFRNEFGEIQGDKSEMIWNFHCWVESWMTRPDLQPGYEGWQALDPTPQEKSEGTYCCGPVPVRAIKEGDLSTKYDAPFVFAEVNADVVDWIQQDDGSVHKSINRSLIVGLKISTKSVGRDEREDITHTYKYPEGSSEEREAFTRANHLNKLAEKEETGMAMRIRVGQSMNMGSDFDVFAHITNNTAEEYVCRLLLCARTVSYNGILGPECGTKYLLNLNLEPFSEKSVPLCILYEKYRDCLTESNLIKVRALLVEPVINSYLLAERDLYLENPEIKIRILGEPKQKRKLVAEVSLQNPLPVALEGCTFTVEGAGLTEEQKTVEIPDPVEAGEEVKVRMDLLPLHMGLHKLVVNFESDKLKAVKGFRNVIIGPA

Compound | solubility in water [1] | collagen cross-linking [2] | effect on the epidermis of eroded skin (barrier function, thickness of the stratum lucidum) (epidermis of eroded skin)
NC(=O)NC1NC(=O)NC1=O (stereo not shown) [Allantoin] | not very soluble in water |  | 
NCCCCN [putrescine, 1,4-diaminobutane] |  | reduce collagen cross-linking in vitro and in vivo | increasing its barrier function as well as the thickness of the stratum lucidum
Alpha Bisabolol | not to be very soluble in water |  | 
